Patent publication US11980616B2, “Treating liver disease by selectively eliminating senescent cells” (Buck Institute for Research on Aging, priority 2014, dated 2024)

Tests used:
[1] = system: osteoarthritic joint of mice after ACL surgery; assay: Osteoarthritis mouse model (ACL surgery); type: in vivo
Experimental: A table and schematic of two osteoarthritis mouse model study designs are presented in FIGS. 35 and 36, respectively. The two treatment studies were designed to determine the effect of removing senescent cells in an animal model of osteoarthritis.
Parallel studies were performed. One study investigated the effect of eliminating senescent cells with ganciclovir (GCV) in 3MR mice. Mice underwent surgery to cut the anterior cruciate ligament of one rear limb to induce osteoarthritis in the joint of that limb. During week 2 post-surgery, 3MR mice received 2.5 μg GCV to the operated knee by intra-articular injection, qd for 5 days, with a 2nd treatment (2.5 μg GCV qd for 5 days) during week 4 post-surgery. At the end of 4 weeks post-surgery, operated joints of the mice were monitored for presence of senescent cells, assessed for function, monitored for markers of inflammation, and underwent histological assessment.
In a parallel study, C57BL/6J mice underwent surgery to cut the anterior cruciate ligament of one rear limb to induce osteoarthritis in the joint of that limb. During week 3 and week 4 post-surgery, the mice were treated with 5.8 μg of Nutlin-3A (n=7) per operated knee by intra-articular injection, qod for 2 weeks. At the end of 4 weeks post-surgery, joints of the mice were monitored for presence of senescent cells, assessed for function, monitored for markers of inflammation, and underwent histological assessment.
Two control groups of mice were included in the studies performed: one group comprising C57BL/6J or 3MR mice that had undergone a sham surgery (n=3) (i.e., surgical procedures followed except for cutting the ACL) and intra-articular injections of vehicle parallel to the GCV-treated group; and one group comprising C57BL/6J or 3MR mice that had undergone an ACL surgery and received intra-articular injections of vehicle (n=5) parallel to the GCV-treated group.
RNA from the operated joints of mice from the Nutlin-3A treated mice was analyzed for expression of SASP factors (mmp3, IL-6) and senescence markers (p16). qRT-PCR was performed to detect mRNA levels. […] RNA from the operated joints of mice was also analyzed for expression of type 2 collagen and compared with expression of actin as a control.
Function of the limbs was assessed 4 weeks post-surgery by a weight bearing test to determine which leg the mice favored (FIG. 39). The mice were allowed to acclimate to the chamber on at least 3 occasions prior to taking measurements. Mice were maneuvered inside the chamber to stand with 1 hind paw on each scale. The weight that was placed on each hind limb was measured over a 3-second period. At least 3 separate measurements were made for each animal at each time point. The results were expressed as the percentage of the weight placed on the operated limb versus the contralateral unoperated limb.
The function of the limbs was also assessed at 4 weeks post-surgery by hotplate analysis to show sensitivity and reaction to pain stimulus. In brief, a mouse was placed on a hotplate at 55° C. When placed on the hot surface of the plate, mice will lift their paws and lick them (paw-lick response) due to attainment of pain threshold. The latency period for the hind limb response (paw-lick response) is recorded as response time.
Histopathology of osteoarthritis induced by ACL surgery illustrated that the proteoglycan layer was destroyed. […] Clearing of senescent cells from the 3MR mice treated with GCV, which kills senescent cells, had the same impact on pathophysiology of osteoarthritis as Nutlin-3A.

[2] = system: 3MR or INK-ATTAC mice exposed to cigarette smoke; assay: Chronic cigarette smoke exposure model (COPD); type: in vivo, mouse; details: after 2 months of cigarette smoke exposure; vs untreated controls
Experimental: In a second animal model for pulmonary diseases (e.g., COPD), mice were exposed to cigarette smoke. The effect of a senolytic agent on the mice exposed to smoke is assessed by senescent cell clearance, lung function, and histopathology.
Six week-old 3MR (n=35) or INK-ATTAC (n=35) mice were chronically exposed to cigarette smoke generated from a Teague TE-10 system, an automatically-controlled cigarette smoking machine that produces a combination of side-stream and mainstream cigarette smoke in a chamber, which is transported to a collecting and mixing chamber where varying amounts of air is mixed with the smoke mixture. The COPD protocol was adapted from the COPD core facility at Johns Hopkins University (at Internet site web.jhu.edu/Biswal/exposure_core/copd.html#Cigarette_Smoke) (Rangasamy et al., 2004, J. Clin. Invest. 114:1248-1259; Yao et al., 2012, J. Clin. Invest. 122:2032-2045). Mice received a total of 6 hours of cigarette smoke exposure per day, 5 days a week for 6 months. Each lighted cigarette (3R4F research cigarettes containing 10.9 mg of total particulate matter (TPM), 9.4 mg of tar, and 0.726 mg of nicotine, and 11.9 mg carbon monoxide per cigarette [University of Kentucky, Lexington, KY]) was puffed for 2 seconds and once every minute for a total of 8 puffs, with the flow rate of 1.05 L/min, to provide a standard puff of 35 cm^3. The smoke machine was adjusted to produce a mixture of side stream smoke (89%) and mainstream smoke (11%) by smoldering 2 cigarettes at one time. The smoke chamber atmosphere was monitored for total suspended particulates (80-120 mg/m^3) and carbon monoxide (350 ppm). Beginning at day 7, (10) INK-ATTAC and (10) 3MR mice were treated with AP20187 (3× per week) or gancyclovir (5 consecutive days of treatment followed by 16 days off drug, repeated until the end of the experiment), respectively. An equal number of mice received the corresponding vehicle. The remaining […] (15 INK-ATTAC and 15 3MR) were evenly split with 5 of each genetically modified strain placed into three different treatment groups. One group (n=10) received Nutlin-3A (25 mg/kg dissolved in 10% DMSO/3% Tween-20 in PBS, treated 14 days consecutively followed by 14 days off drug, repeated until the end of the experiment). […]
After two months of cigarette smoke exposure, lung function was assessed by monitoring oxygen saturation using the MouseSTAT PhysioSuite pulse oximeter (Kent Scientific). […] Mice were monitored for 30 seconds and the average peripheral capillary oxygen saturation (SpO2) measurement over this duration was calculated.

Structure (SMILES)	Type 2 collagen expression in operated joints ([1]; 5.8 μg per knee intra-articular, vs untreated mice)	Weight bearing test (weight on operated vs unoperated limb) ([1]; 4 weeks post-surgery)	Hotplate paw-lick response time ([1]; 55° C., 4 weeks post-surgery)	Histopathology: destruction of the proteoglycan layer ([1]; C57BL/6J, 5.8 μg per knee intra-articular)	Senescent cells in the joint (p16 and SASP factor mRNA, qRT-PCR) ([1]; C57BL/6J, 5.8 μg per knee intra-articular qod 2 weeks, 4 weeks post-surgery)	SpO2 levels [2]	Histopathology: impact on pathophysiology of osteoarthritis ([1]; 3MR mice, 2.5 μg intra-articular qd 5 days, weeks 2 and 4)
COc1ccc(C2=N[C@@H](c3ccc(Cl)cc3)[C@@H](c3ccc(Cl)cc3)N2C(=O)N2CCNC(=O)C2)c(OC(C)C)c1 [Nutlin-3a]	drives collagen production	abrogates this effect	decreases the response time in a significant manner	completely abrogated this effect	clears senescent cells from the joint	statistically significant increases	
Nc1nc(O)c2ncn(COC(CO)CO)c2n1 [ganciclovir]						statistically significant increases	same impact
